Assay results as given in article PMC9223397 (International Journal of Molecular Sciences, 2022).

Tests used:
[1] = Plasma levels, SOD1G93A model; assay type: in vivo, Transgenic SOD1^G93A male mouse; details: SOD1G93A transgenic, ip
Experimental: (§1) The compounds were dissolved in 0.5% hydroxypropyl-methylcellulose (HPMC; H7509, Sigma-Aldrich) in distilled water and were administered by intraperitoneal (i.p.) route twice daily (bid) in a volume of 10 mL/kg. Administrations were given from 30 min after rhizotomy surgery until 42 days post-injury (dpi), the end of the study; in the SOD1^G93A study, treatments were given from 8 to 16 weeks of age (see Figure 6).
Plasma levels were determined in the two in vivo models evaluated to be able to associate the pharmacological activity with the levels present in plasma. In the rhizotomy model, the plasma levels were evaluated at Day 42 after surgery and at 15 min after compound administration (0.5 and 5 mg/kg i.p.). […] Plasma samples were assayed by ultraperformance liquid chromatography−triple quadrupole mass spectrometry (UPLC-MS/MS) after plasma protein precipitation. Results are expressed as mean ± standard deviation (n = 8).

[2] = test system: SMI-32-positive MNs in spinal cord organotypic cultures; assay: Spinal cord organotypic cultures (SCOC) under chronic excitotoxicity (THA); assay type: cell-based, Sprague–Dawley rats; details: THA 100 µM, 28 DIV; tested at 0.03, 0.3, 3, 30 µM
Experimental: SCOCs from lumbar sections of 8-day-old Sprague–Dawley rats were prepared as previously described [39]. Briefly, the spinal cord was collected and cut into 350 μm thick transverse sections with a McIlwain Tissue Chopper. Four lumbar sections were transferred onto Millicell-CM nets (0.4 μm, PICM03050, Millipore) in medium (50% (v/v) minimal essential medium (MEM, M5775, Sigma), 2 mM glutamine, 25 mM HEPES, 25% (v/v) Hank’s Balanced Salt Solution (HBSS^−/−;14175, Gibco; UK) supplemented with 25.6 mg/mL glucose, and 25% (v/v) heat-inactivated horse serum (26050-088, Gibco; New Zealand), pH = 7.2). Cultures were maintained at 37 °C in a 5% CO2 humidified cabin and left to stabilize. After 7 days in vitro (DIV), DL-threo-β-hydroxyaspartic acid (THA; 100 μM: H2775, Sigma Aldrich, St. Louis, MI, USA) was added to induce chronic excitotoxicity [28]. […] In vitro experiments were performed in three independent cultures, with at least 12 different SCOCs for each experimental condition.
Slices were maintained for 28 DIV and then fixed with 4% PFA. […] MN survival was assessed by counting all SMI-32-positive neurons in each spinal cord using the Cell Counter plugin of ImageJ software.

[3] = test system: SOD1^G93A mice; assay: Rotarod test in SOD1G93A mice; assay type: in vivo, SOD1^G93A male mice; details: 5 mg/kg i.p.; at 15 weeks of age
Experimental: as §1
A rotarod test was performed to evaluate motor coordination and strength. The time that each animal remained on the rotating rod at a speed of 14 rpm was measured for five trials per mouse, and the longest time until falling was recorded; 180 s was chosen as the cut-off time. The test was performed weekly from 8 to 16 weeks of age in SOD1^G93A and WT mice, and disease onset was determined as the first week when each mouse was unable to keep walking for 180 s on the rod.

[4] = Plasma levels, spinal nerve injury (rhizotomy) model; assay type: in vivo, female mouse; details: ip
Experimental: as §1
Plasma levels were determined in the two in vivo models evaluated to be able to associate the pharmacological activity with the levels present in plasma. […] In the SOD1^G93A model, the plasma levels were evaluated at 16 weeks of age (after 8 weeks of administration) and 15 min after compound administration (5 mg/kg i.p.). Plasma samples were assayed by ultraperformance liquid chromatography−triple quadrupole mass spectrometry (UPLC-MS/MS) after plasma protein precipitation. Results are expressed as mean ± standard deviation (n = 8).

[5] = Body weight in SOD1G93A mice; assay type: in vivo, SOD1^G93A male mice; details: 5 mg/kg i.p., 8 to 16 weeks of age
Experimental: as §1

[6] = test system: Sig-1R/BiP interaction; assay: BiP/Sig-1R association assay in CHO cells; assay type: cell-based; details: for Effect on association between Sig-1R and BiP, compound alone: 30 µM; for Effect on Sig-1R/BiP interaction (concentration-response): CHO cells, 37 °C 30 min, co-IP/ELISA; for Functional profile for Sig-1R: based on BiP/Sig-1R association assay
Experimental: The interaction between Sig-1R and the chaperone BiP was used to identify the functional nature (agonistic or antagonistic) of compounds [38]. The assay was conducted by Amylgen according to their standard assay protocol (https://www.amylgen.fr/ (accessed on 15 May 2022)). Each assay condition consisted of six determinations. In brief, CHO cells were treated with compounds at 37 °C for 30 min and lysed. CHO cell lysates were immunoprecipitated with Sig-1R antibody, and coimmunoprecipitated BiP was detected by ELISA assay. In each experiment, untreated control cell lysates were used to assess the maximal level of Sig1R-BiP interaction and represented 100% of Sig1R-BiP association. Cells treated with compounds at the corresponding concentrations were equally processed, and the level of Sig1R-BiP association in those conditions was referred to as the control condition. In this experimental setting, Sig1R agonists were able to reduce the Sig1R-BiP interaction, while antagonists were not.

| SMILES | concentration at 15 min ([1]; plasma, SOD1G93A male mouse, 5 mg/kg i.p., after 8 weeks of administration, read-out: Plasma Concentration 15 min Post-Administration, Mean) [ng/mL] | Number of SMI-32-positive MNs vs THA condition [2] | Rotarod performance vs vehicle [3] | concentration at 15 min ([4]; plasma, rhizotomy female mouse, 0.5 mg/kg i.p. bid, day 42, read-out: Plasma Concentration 15 min Post-Administration, Mean) [ng/mL] | concentration at 15 min ([4]; plasma, rhizotomy female mouse, 5 mg/kg i.p. bid, day 42, read-out: Plasma Concentration 15 min Post-Administration, Mean) [ng/mL] | Body weight vs vehicle group [5] | Effect on association between Sig-1R and BiP, compound alone [6] | Effect on Sig-1R/BiP interaction (concentration-response) [6] | Functional profile for Sig-1R [6] | concentration at 15 min ([1]; male, mouse, in vivo, 5 mg/kg) [ng/mL] | concentration at 15 min ([4]; female, mouse, in vivo, 0.5 mg/kg) [ng/mL] | concentration at 15 min ([4]; female, mouse, in vivo, 5 mg/kg) [ng/mL] | Reversion of the effect of PRE-084 on Sig-1R/BiP association ([6]; compound 30 µM, PRE-084 10 µM) |
| --- | --- | --- | --- | --- | --- | --- | --- | --- | --- | --- | --- | --- | --- |
| C[C@@H]1OC2(CCN(Cc3ccc(F)cc3)CC2)CN(C)C1=O [EST79232] | 425 | significantly more SMI-32-positive neurons at three concentrations tested | significant improvement | 20 | 265 | did not cause differences in body weight | able to reduce the association between Sig-1R and BiP | concentration-dependent dissociation of Sig-1R from BiP | agonist | – | – | – | – |
| CCN1CC2(CCN(Cc3ccc(C#N)c(F)c3)CC2)O[C@@H](C)C1=O [EST79376] | – | significantly preserved MNs | – | – | – | – | had no effect on its own | did not produce any change in the interaction between the two proteins | antagonist | 692 | 21 | 592 | able to revert the effect of PRE-084 |
